Data taken from PubChem BioAssay (NCI).
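Where inhibition never reached the appropriate level, the endpoint shown equals the highest concentration tested. Otherwise, values were interpolated linearly from a five-concentration, 48-hour dose response in 96-well plates. Definition used: TGI = concentration required for complete inhibition of growth.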

How the values were obtained:
Assay in all cases: NCI tumour cell line growth inhibition, 48 h
SW-620 colon = test system: SW-620 colon
IGROV1 ovarian = test system: IGROV1 ovarian
TK-10 renal = test system: TK-10 renal
NCI-H522 lung = test system: NCI-H522 lung
NCI-H23 lung = test system: NCI-H23 lung
CCRF-CEM leukemia = test system: CCRF-CEM leukemia
KM12 colon = test system: KM12 colon
SNB-78 CNS = test system: SNB-78 CNS
KM20L2 colon = test system: KM20L2 colon
SN12C renal = test system: SN12C renal
RPMI-8226 leukemia = test system: RPMI-8226 leukemia
ACHN renal = test system: ACHN renal
LXFL 529 NSCLC = test system: LXFL 529 NSCLC
SNB-19 CNS = test system: SNB-19 CNS
DMS 114 small cell lung = test system: DMS 114 small cell lung
786-0 renal = test system: 786-0 renal
HOP-62 NSCLC = test system: HOP-62 NSCLC
EKVX NSCLC = test system: EKVX NSCLC
HCC-2998 colon = test system: HCC-2998 colon
LOX IMVI melanoma = test system: LOX IMVI melanoma
UACC-257 melanoma = test system: UACC-257 melanoma
SK-MEL-2 melanoma = test system: SK-MEL-2 melanoma
K-562 leukemia = test system: K-562 leukemia
HL-60(TB) leukemia = test system: HL-60(TB) leukemia
SF-295 CNS = test system: SF-295 CNS
OVCAR-8 ovarian = test system: OVCAR-8 ovarian
HCT-116 colon = test system: HCT-116 colon
SF-268 CNS = test system: SF-268 CNS
HCT-15 colon = test system: HCT-15 colon
OVCAR-5 ovarian = test system: OVCAR-5 ovarian
RXF 393 renal = test system: RXF 393 renal
UACC-62 melanoma = test system: UACC-62 melanoma
SNB-75 CNS = test system: SNB-75 CNS
HOP-92 NSCLC = test system: HOP-92 NSCLC
XF 498 CNS = test system: XF 498 CNS
U251 CNS = test system: U251 CNS
M19-MEL melanoma = test system: M19-MEL melanoma
OVCAR-4 ovarian = test system: OVCAR-4 ovarian
HT29 colon = test system: HT29 colon
UO-31 renal = test system: UO-31 renal
M14 melanoma = test system: M14 melanoma
OVCAR-3 ovarian = test system: OVCAR-3 ovarian
DLD-1 colon = test system: DLD-1 colon
COLO 205 colon = test system: COLO 205 colon
DMS 273 small cell lung = test system: DMS 273 small cell lung
SK-MEL-5 melanoma = test system: SK-MEL-5 melanoma
CAKI-1 renal = test system: CAKI-1 renal
MALME-3M melanoma = test system: MALME-3M melanoma
A498 renal = test system: A498 renal
NCI-H226 lung = test system: NCI-H226 lung
NCI-H460 lung = test system: NCI-H460 lung
SK-MEL-28 melanoma = test system: SK-MEL-28 melanoma
SF-539 CNS = test system: SF-539 CNS
SK-OV-3 ovarian = test system: SK-OV-3 ovarian
MOLT-4 leukemia = test system: MOLT-4 leukemia
A549 NSCLC = test system: A549 NSCLC
SR leukemia = test system: SR leukemia

For COC(=O)/C(=N\NC(=O)c1ccccc1O)C(C#N)c1ccccc1 (stereo not given), the TGI (SW-620 colon) was over 50 µM, the TGI (IGROV1 ovarian) was over 50 µM and the TGI (TK-10 renal) was over 50 µM. The TGI (NCI-H522 lung) was over 50 µM, the TGI (NCI-H23 lung) was over 40.7 µM and the TGI (CCRF-CEM leukemia) was over 50 µM. For the same compound, the TGI (KM12 colon) was over 50 µM, the TGI (SNB-78 CNS) was over 50 µM and the TGI (KM20L2 colon) was over 50 µM. The TGI (SN12C renal) was over 50 µM, the TGI (RPMI-8226 leukemia) was over 50 µM and the TGI (ACHN renal) was over 50 µM. It also gave a TGI (LXFL 529 NSCLC) of over 50 µM, a TGI (SNB-19 CNS) of over 50 µM and a TGI (DMS 114 small cell lung) of over 50 µM. For the same compound, the TGI (786-0 renal) was over 50 µM, the TGI (HOP-62 NSCLC) was over 50 µM and the TGI (EKVX NSCLC) was over 48.4 µM. The TGI (HCC-2998 colon) was over 50 µM, the TGI (LOX IMVI melanoma) was over 50 µM and the TGI (UACC-257 melanoma) was over 50 µM. For the same compound, the TGI (SK-MEL-2 melanoma) was over 50 µM, the TGI (K-562 leukemia) was over 50 µM and the TGI (HL-60(TB) leukemia) was over 50 µM. The TGI (SF-295 CNS) was over 50 µM, the TGI (OVCAR-8 ovarian) was over 50 µM and the TGI (HCT-116 colon) was over 50 µM. It also gave a TGI (SF-268 CNS) of over 50 µM, a TGI (HCT-15 colon) of over 50 µM and a TGI (OVCAR-5 ovarian) of over 50 µM. For the same compound, the TGI (RXF 393 renal) was 34.1 µM, the TGI (UACC-62 melanoma) was over 32.8 µM and the TGI (SNB-75 CNS) was over 50 µM. The TGI (HOP-92 NSCLC) was over 50 µM, the TGI (XF 498 CNS) was over 50 µM and the TGI (U251 CNS) was over 50 µM. For the same compound, the TGI (M19-MEL melanoma) was over 50 µM, the TGI (OVCAR-4 ovarian) was over 50 µM and the TGI (HT29 colon) was over 50 µM. The TGI (UO-31 renal) was 37.6 µM, the TGI (M14 melanoma) was over 50 µM and the TGI (OVCAR-3 ovarian) was over 40.6 µM. The TGI (DLD-1 colon) was over 50 µM, the TGI (COLO 205 colon) was over 50 µM and the TGI (DMS 273 small cell lung) was over 50 µM. It also gave a TGI (SK-MEL-5 melanoma) of over 50 µM, a TGI (CAKI-1 renal) of over 50 µM and a TGI (MALME-3M melanoma) of over 50 µM. The TGI (A498 renal) was over 48.4 µM, the TGI (NCI-H226 lung) was 46.1 µM and the TGI (NCI-H460 lung) was over 50 µM. For the same compound, the TGI (SK-MEL-28 melanoma) was over 50 µM, the TGI (SF-539 CNS) was over 43.3 µM and the TGI (SK-OV-3 ovarian) was over 50 µM. For the same compound, the TGI (MOLT-4 leukemia) was over 50 µM and the TGI (A549 NSCLC) was over 50 µM.

Compound CNCC(=O)Nc1ccc2c(c1)C(=O)c1ccc(NC(=O)CNC)cc1C2=O has a TGI (SW-620 colon) of 12.3 µM, a TGI (IGROV1 ovarian) of 38 µM and a TGI (TK-10 renal) of 44.9 µM. It also gave a TGI (NCI-H522 lung) of 4.81 µM, a TGI (NCI-H23 lung) of 31.6 µM and a TGI (CCRF-CEM leukemia) of 11 µM. The TGI (KM12 colon) was 10.4 µM, the TGI (SNB-78 CNS) was 10.7 µM and the TGI (KM20L2 colon) was 21.1 µM. It also gave a TGI (SN12C renal) of 11.9 µM, a TGI (LXFL 529 NSCLC) of 12.3 µM and a TGI (DMS 114 small cell lung) of 7.12 µM. It also gave a TGI (786-0 renal) of 15.7 µM, a TGI (HOP-62 NSCLC) of 9.98 µM and a TGI (HCC-2998 colon) of 14.6 µM. The TGI (LOX IMVI melanoma) was 4.17 µM, the TGI (UACC-257 melanoma) was 16.1 µM and the TGI (SR leukemia) was 7.54 µM. For the same compound, the TGI (SK-MEL-2 melanoma) was 11.7 µM, the TGI (K-562 leukemia) was 7.19 µM and the TGI (SF-295 CNS) was 18.6 µM. It also gave a TGI (OVCAR-8 ovarian) of 10.2 µM, a TGI (HCT-116 colon) of 11.9 µM and a TGI (HCT-15 colon) of 23.2 µM. It also gave a TGI (OVCAR-5 ovarian) of 34.8 µM, a TGI (RXF 393 renal) of 20.3 µM and a TGI (UACC-62 melanoma) of 22.2 µM. The TGI (SNB-75 CNS) was 27.1 µM, the TGI (HOP-92 NSCLC) was 7 µM and the TGI (XF 498 CNS) was 8.25 µM. For the same compound, the TGI (U251 CNS) was 10.4 µM, the TGI (OVCAR-4 ovarian) was 5.68 µM and the TGI (HT29 colon) was 16.2 µM. The TGI (UO-31 renal) was 25.7 µM, the TGI (M14 melanoma) was 11.8 µM and the TGI (OVCAR-3 ovarian) was 11.1 µM. The TGI (DLD-1 colon) was 29.9 µM, the TGI (COLO 205 colon) was 11 µM and the TGI (DMS 273 small cell lung) was 10.7 µM. It also gave a TGI (SK-MEL-5 melanoma) of 17.9 µM, a TGI (CAKI-1 renal) of 20 µM and a TGI (MALME-3M melanoma) of 12.9 µM. The TGI (A498 renal) was 28.5 µM, the TGI (NCI-H226 lung) was 20.3 µM and the TGI (NCI-H460 lung) was 12.3 µM. For the same compound, the TGI (SK-MEL-28 melanoma) was 10.1 µM, the TGI (SF-539 CNS) was 11.2 µM and the TGI (SK-OV-3 ovarian) was 3.81 µM. It also gave a TGI (MOLT-4 leukemia) of 10.1 µM and a TGI (A549 NSCLC) of 25.6 µM.

CCOC(=O)C1CCCCN1C(=O)OCc1ccccc1 (stereo not given) was tested, and the TGI (SW-620 colon) was over 100 µM, the TGI (TK-10 renal) was over 100 µM and the TGI (NCI-H522 lung) was over 100 µM. For the same compound, the TGI (NCI-H23 lung) was over 100 µM, the TGI (CCRF-CEM leukemia) was over 100 µM and the TGI (KM12 colon) was over 100 µM. For the same compound, the TGI (SNB-78 CNS) was over 100 µM, the TGI (SN12C renal) was over 100 µM and the TGI (ACHN renal) was over 100 µM. For the same compound, the TGI (LXFL 529 NSCLC) was over 100 µM, the TGI (SNB-19 CNS) was over 100 µM and the TGI (DMS 114 small cell lung) was over 100 µM. It also gave a TGI (786-0 renal) of over 100 µM, a TGI (HOP-62 NSCLC) of over 100 µM and a TGI (EKVX NSCLC) of over 100 µM. The TGI (UACC-257 melanoma) was over 100 µM, the TGI (SR leukemia) was over 100 µM and the TGI (SK-MEL-2 melanoma) was over 100 µM. It also gave a TGI (K-562 leukemia) of over 100 µM, a TGI (HL-60(TB) leukemia) of over 100 µM and a TGI (SF-295 CNS) of over 100 µM. It also gave a TGI (OVCAR-8 ovarian) of over 100 µM, a TGI (HCT-116 colon) of over 100 µM and a TGI (SF-268 CNS) of over 100 µM. The TGI (HCT-15 colon) was over 100 µM, the TGI (OVCAR-5 ovarian) was over 100 µM and the TGI (RXF 393 renal) was over 100 µM. The TGI (UACC-62 melanoma) was over 100 µM, the TGI (SNB-75 CNS) was over 100 µM and the TGI (XF 498 CNS) was over 100 µM. For the same compound, the TGI (U251 CNS) was over 100 µM, the TGI (M19-MEL melanoma) was over 100 µM and the TGI (OVCAR-4 ovarian) was over 100 µM. The TGI (HT29 colon) was over 100 µM, the TGI (UO-31 renal) was over 100 µM and the TGI (M14 melanoma) was over 100 µM. For the same compound, the TGI (OVCAR-3 ovarian) was over 100 µM, the TGI (DLD-1 colon) was over 100 µM and the TGI (DMS 273 small cell lung) was over 100 µM. For the same compound, the TGI (SK-MEL-5 melanoma) was over 100 µM, the TGI (CAKI-1 renal) was over 100 µM and the TGI (A498 renal) was over 100 µM. It also gave a TGI (NCI-H226 lung) of over 100 µM, a TGI (NCI-H460 lung) of over 100 µM and a TGI (SK-MEL-28 melanoma) of over 100 µM. For the same compound, the TGI (SF-539 CNS) was over 100 µM, the TGI (SK-OV-3 ovarian) was over 100 µM and the TGI (MOLT-4 leukemia) was over 100 µM. The TGI (A549 NSCLC) was over 100 µM.
